The values below come from patent US20260008784A1 (VASTHERA CO., LTD., priority 2022, published 2026).

Data set [1] has as its system human aortic smooth muscle cell (HASMC). The data set is described as follows: PDGF-induced proliferation assay, HASMC (PrxII siRNA). It counts as cell-based. As to conditions: for Degree of HASMC proliferation: PDGF-BB 25 ng/mL, percent of untreated control; for IC50: Homo sapiens, HASMC, 50% growth inhibition, PDGF-stimulated.
A short description of data set [2]: Measurement of redox potential (DTT redox buffers, HPLC). It is filed as physicochemical. As to conditions: DTT(Red)/DTT(Ox) redox buffers, 3 h, 30° C., 50% reduction of test compound.
Data set [3] has as its system Tyr 857 phosphorylation of PDGF receptor-β (PDGFRβ) in HASMC. The data set is described as follows: Immunoblot of PDGF-mediated signaling in PrxII knock-down HASMC. It is filed as cell-based, human. The conditions noted are these: for Effect on phosphorylation of Tyr 857 on PDGFR: HASMC depleted of PrxII expression, FIG. 2. In outline:
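HASMC and PASMC with PrxII knocked down by siRNA were treated with test compounds and PDGF-stimulated. Lysates in Hepes pH 7.0/Triton X-100 buffer with phosphatase and protease inhibitors were immunoblotted with anti-phospho-Tyr 857 PDGFRβ antibody. Membranes were stripped and reprobed.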
Background: A western blot detects proteins with antibodies after separation by electrophoresis.

The test system of data set [4] is yeast thioredoxin (Trx)/yeast Trx reductase (TR). As to the kind of experiment: Peroxidase activity assay (H2O2 reduction, NADPH oxidation). It counts as biochemical. The conditions noted are these: 50 μM test compound, 3 μM yeast Trx, 1.5 μM yeast TR, 250 μM NADPH, 1.2 mM H2O2, 30° C.; NADPH oxidized per minute. In outline:
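Buffer: 50 mM HEPES pH 7.0, 1 mM EDTA, 250 μM NADPH, 3 μM yeast Trx, 1.5 μM yeast TR, 50 μM test compound; reaction started with 1.2 mM H2O2. A340 decrease followed at 30° C for 12 min. Initial rate is NADPH oxidized per minute, taken from the linear slope.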

The subject of data set [5] is human aortic endothelial cell (HAEC). As to the kind of experiment: VEGF-induced proliferation assay, HAEC (PrxII siRNA). It counts as cell-based. The conditions noted are these: for Degree of HAEC proliferation: VEGF-A 25 ng/mL, percent of untreated control; for EC50: Homo sapiens, Endothelial cell, effective concentration increasing cell proliferation by 50%, VEGF-stimulated.

Experimental for in vitro: Cytotoxicity tests were performed against vascular endothelial cells, vascular smooth muscle cells and hepatocytes. After treatment with ascending concentrations of each compound, the concentration of test compound corresponding to 50% cell viability (CC50) was measured.

`CN1C(=O)C2(C)SSCC1C(=O)N2C` (stereo not drawn) [Compound 1, 1,6,8-trimethyl-2,3-dithia-6,8-diazabicyclo[3.2.2]nonane-7,9-dione]: the “Degree of HASMC proliferation” value in data set [1] (2.5 nM) is listed as 70.0%; in data set [1] (5 nM), 43.9%; in data set [1] (10 nM), 17.1%; in data set [1] (25 nM) it was 1.5%. Also, in data set [1], the IC50 – broadly, the midpoint of a concentration-inhibition curve – amounted to 4.18 nM. Besides, the “Midpoint redox potential (E m)” value in data set [2] was −285.25 mV. Also, the “Effect on phosphorylation of Tyr 857 on PDGFR” value (shortened to “Effect on phosphorylation”) in data set [3] is recorded as “strongly abolish the phosphorylation”. For the same compound, the “Concentrations at which phosphorylation of Tyr 857 on PDGFRβ is significantly reduced” value in data set [3] (HASMCs, PrxII knock-down, FIG. 1) is recorded as “above 2.5 nM”. Further, the “Peroxidase activity for H2O2 reduction” value in data set [4] worked out at 4.92 nmol/min. The compound also returned a CC50 in “in vitro” of 230000 nM. The “Degree of HAEC proliferation” value in data set [5] (2.5 nM) was found to be 113.8%; in data set [5] (5 nM), 143.7%; in data set [5] (10 nM) it was 162.9%; in data set [5] (25 nM), 187.8%; in data set [5] (50 nM) it was 164.7%; in data set [5] (100 nM), 170.2%. Further, the EC50 (as a rule, the concentration needed to bring the measured effect to its halfway point) in data set [5] was 4.93 nM.

`CN1C(=O)C2CSSC1(C)C(=O)N2Cc1ccc2ccccc2n1` (stereo not drawn) [Compound 5, 1,8-dimethyl-6-(quinolin-2-ylmethyl)-2,3-dithia-6,8-diazabicyclo[3.2.2]nonane-7,9-dione]: the “Degree of HASMC proliferation” value is 62.3% in data set [1] (2.5 nM), 52.4% in data set [1] (5 nM), 36.9% in data set [1] (10 nM) and 9.7% in data set [1] (25 nM). The same compound came in with an IC50 in data set [1] of 4.87 nM. The “Midpoint redox potential (E m)” value in data set [2] is reported as −290.3 mV. Also, in data set [3], the “Effect on phosphorylation” value is on record as “strongly abolish the phosphorylation”. Moreover, the “Peroxidase activity for H2O2 reduction” value in data set [4] came to 4.80 nmol/min. In addition, the CC50 in the data set “in vitro” is > 500000 nM. Moreover, the “Degree of HAEC proliferation” value was determined as 112.2% in data set [5] (2.5 nM); 129.7% in data set [5] (5 nM); 165.6% in data set [5] (10 nM); 191.6% in data set [5] (25 nM); 172.7% in data set [5] (50 nM); 180.1% in data set [5] (100 nM). The EC50 in data set [5] amounted to 5.31 nM.

Consider `O=C1C2CSSC3(COCCN13)C(=O)N2Cc1ccccc1` (stereo not drawn) [Compound 8, 12-benzyltetrahydro-5H,10H-4,10a-(epiminomethano)[1,4]oxazino[3,4-c][1,2,4]dithia zepine-5,11-dione], for which the “Degree of HASMC proliferation” value in data set [1] (2.5 nM) is 75.1%; in data set [1] (5 nM) it was 40.1%; in data set [1] (10 nM) it was 46.9%; in data set [1] (25 nM), 30.2%. The 50% inhibitory concentration (IC50) in data set [1] amounted to 6.46 nM. Besides, the “Midpoint redox potential (E m)” value in data set [2] is given as −272.6 mV. Further, the “Peroxidase activity for H2O2 reduction” value in data set [4] worked out at 4.91 nmol/min. Besides, in “in vitro”, the CC50 was determined as 312000 nM. In addition, the “Degree of HAEC proliferation” value in data set [5] (2.5 nM) was 107.3%; in data set [5] (5 nM) it was 147.3%; in data set [5] (10 nM), 186.3%; in data set [5] (25 nM), 204.8%; in data set [5] (50 nM), 157.0%; in data set [5] (100 nM), 161.6%. Further, in data set [5], the 50% effective concentration (EC50) was 5.04 nM.

As for `CCN1C(=O)C2(C)SSCC1C(=O)N2CC` (stereo not drawn) [Compound 20, 6,8-diethyl-1-methyl-2,3-dithia-6,8-diazabicyclo[3.2.2]nonane-7,9-dione], the “Degree of HASMC proliferation” value in data set [1] (2.5 nM) is 85.8%; in data set [1] (5 nM), 58.7%; in data set [1] (10 nM), 34.9%; in data set [1] (25 nM), 12.3%. The same compound displayed an IC50 in data set [1] of 6.69 nM. Also, in data set [2], the “Midpoint redox potential (E m)” value is reported as −296.79 mV. Besides, the “Effect on phosphorylation” value in data set [3] is on record as “strongly abolish the phosphorylation”. For the same compound, in data set [4], the “Peroxidase activity for H2O2 reduction” value stood at 4.78 nmol/min. The “Degree of HAEC proliferation” value is 116.4% in data set [5] (2.5 nM); 120.3% in data set [5] (5 nM); 136.3% in data set [5] (10 nM); 155.9% in data set [5] (25 nM); 169.5% in data set [5] (50 nM); 187.6% in data set [5] (100 nM). The compound also yielded an EC50 in data set [5] of 10.2 nM.
